How the values were obtained:
[1] = target: SARS-CoV-2 pseudoknot; experiment: ligand observed fluorescence titrations (binding to the pseudoknot); details: for Kd: binding to the pseudoknot structure, Figure 3
[2] = test system: pseudoknot RNA; experiment: inline probing experiments; assay type: binding, SARS-CoV-2
[3] = test system: pseudoknot RNA; experiment: 1H,15N-HSQC NMR experiments (chemical shift perturbation, binding site mapping); set-up: species or system SARS-CoV-2
[4] = test system: SARS-CoV-2; details: Wang et al., 2020, Zhang et al.; cited from earlier work
[5] = test system: COVID-19; details: Cao et al., 2020; cited from earlier work
[6] = at higher concentrations; Borba et al., 2020; cited from earlier work

Cc1ccc(C)n1CCC(=O)Nc1ccc2nc[nH]c(=O)c2c1 [D05, 3-(2,5-dimethyl-1H-pyrrol-1-yl)-N-(4-oxo-3,4-dihydroquinazolin-6-yl)propanamide]
Kd [1]: 140 µM
interactions with the RNA in in-line probing experiments [2]: showed interactions with the RNA
interactions with the RNA in NMR experiments [3]: showed interactions with the RNA

NC(=O)c1ncn([C@@H]2O[C@H](CO)[C@@H](O)[C@H]2O)n1 [Ribavirin]
antiviral activity [4]: two- or three-digit micromolar range

CC(C)(C)OC(=O)Nc1cccn([C@@H](CC2CC2)C(=O)N[C@@H](C[C@@H]2CCNC2=O)C(=O)C(=O)NCc2ccccc2)c1=O [α-ketoamide-Inhibitor 13b]
antiviral activity [4]: low micromolar range

Cc1cccc(C)c1OCC(=O)N[C@@H](Cc1ccccc1)[C@@H](O)C[C@H](Cc1ccccc1)NC(=O)[C@H](C(C)C)N1CCCNC1=O [lopinavir]
effect in clinical tests [5]: no effect

COc1ccc(-c2cc(-c3ccncc3)nc(N3C[C@H](N)C[C@H](N)C3)n2)cc1 [D01+DAP, (3R,5S)-1-(4-(4-methoxyphenyl)-6-(pyridin-4-yl)pyrimidin-2-yl)piperidine-3,5-diamine]
Kd [1]: 0.3 µM
binding affinity to the SARS-CoV-2 pseudoknot (ranking among evaluated derivatives) ([1]; ligand observed fluorescence titrations, Figures 3 and 14): highest binding affinity
interaction in inline probing ([2]; Figure 4B): interaction of D01+DAP and the pseudoknot RNA in the predicted HS1 and the loop region (L2)
binding site from chemical shift perturbation and decreasing signal intensity ([3]; addition of ligand to pseudoknot RNA, Figure 4A): confirmed one of the binding hot spots (HS2) as a binding site

CCN(CC)CCCC(C)Nc1ccnc2cc(Cl)ccc12 (stereo not drawn) [chloroquine]
side-effects [6]: heart arrhythmia

NC(=O)c1nc(F)cnc1O [favipavir]
antiviral activity [4]: two- or three-digit micromolar range
